Experiments:
[1] = molecular target: human serum albumin (HSA) (Homo sapiens, UniProt P02768); settings: PBS at pH 7.4; cited from earlier work
[2] = system: A375 human melanoma xenografts; experiment: A375 human melanoma xenograft study 1, tumor growth delay method; type: in vivo, athymic nude mice
Excerpt: The following study evaluates two intravenous formulations according to the present invention against human tumor xenografts in athymic nude mice. The study used the A375 human melanoma xenograft model to compare the in vivo antitumor efficacy of I.V. 9-nitro-camptothecin, in vehicles containing IDD-P which provides a particulate suspension of 9-nitro-camptothecin, and IDD-D which provides a droplet suspension of 9-nitro-camptothecin, to the efficacy of oral 9-nitro-camptothecin and intraperitoneal CAMPTOSAR®, HYCAMTIN®, and DTIC®. Examples 1 and 2 describe the compositions of IDD-P (FIG. 1; formulation 1-F) and IDD-D respectively.
In order to assess antitumor efficacy, groups of athymic nude mice (n=10) bearing ˜72-mg A375 melanomas were treated intravenously on the 5/2/5 schedule with 9-nitro-camptothecin in IDD-P at 3.0 mg/kg or 1.5 mg/kg and 9-nitro-camptothecin in IDD-D at 2.0 mg/kg or 1.0 mg/kg.
Female nude mice were 16 weeks of age (NCR-nuJBr; Taconic Farms) for the A375 study. The mice were fed ad libitum water (reverse osmosis, 1 ppm Cl) and autoclaved Prolab NIH-31 M/5% Rodent Diet consisting of 18% protein, 5% fat, 6% fiber, and 8% ash. Mice were housed in static microisolators on a 12-hour light cycle at 21-22° C. (70-72° F.) and 40%-60% humidity. The animal care and use program is AAALAC International accredited and specifically follows and complies with the recommendation of the National Research Council's Guide for the Care and Use of Laboratory Animals.
An A375 melanoma fragment (1 mm 3) was implanted subcutaneously in the flank of each nude mouse. When the tumors reached the 60-112 mg size range, the mice were sorted into treatment groups (on Day 1) such that the group mean tumor sizes ranged from 71.3 mg-72.5 mg. Estimated tumor weight was calculated using the formula: [formula]
IDD-P with a mean particle size of […] and IDD-D with a mean particle size of […] were prepared for the study by RTP Pharma Inc. For this, the 9-nitro-camptothecin suspensions were diluted with water and vehicle to provide doses of 3 mg/kg and 1.5 mg/kg in 33% IDD-P, and doses of 2 mg/kg and 1 mg/kg in 100% and 50% IDD-D, respectively. After dilution, 9-nitro-camptothecin suspensions were mixed thoroughly by gentle agitation and stored at 2-8° C. For its oral formulation, 9-nitro-camptothecin was dissolved in DMA (N,N-dimethylacetamide, SIGMA) and diluted with D5W to yield a final DMA concentration of 3%. CAMPTOSAR®, DTIC®, and HYCAMTIN® were obtained as the marketed drugs and solutions were prepared fresh on the day of dosing. […]
The tumor growth delay (TGD) method was used to assess efficacy. Tumor dimensions were measured twice weekly until the experiment was terminated on Day 62. […]

[3] = i.v., clinical trials; cited from earlier work
[4] = Evaluation of toxicity in the A375 melanoma study; type: in vivo, athymic nude mice; settings: Group 7: 150 mg/kg I.P., qd×5
Procedure: Volumes of 0.20 ml per 20-g mouse, body-weight adjusted, were administered once daily. Tumor-bearing athymic nude mice were matched on Day 1 into 13 groups of ten animals and drug administration was initiated. The I.V. formulations of 9-nitro-camptothecin were given once daily on a 5/2/5 schedule as shown in the protocol summary shown in FIG. 4. Oral 9-nitro-camptothecin doses were given on a q3d×4 schedule (Days 1, 4, 8, and 11). Three reference drugs were administered I.P.: CAMPTOSAR® was given in three doses at weekly intervals (qwk×3); HYCAMTIN® was given in four doses at four-day intervals (q4d×4); and DTIC® was given in five consecutive daily doses (qd×5). The tumor growth control group for these reference treatments received no treatment (Group 1). The 9-nitro-camptothecin vehicle: 33.3% IDD-P, 100% IDD-D, and 3% DMA, was administered to vehicle control Groups 2-4, respectively.
The maximum tolerated dose (MTD), as defined by the NCI, is the highest dose at which no more than 10% of the animals die and the group mean body-weight loss is no more than 20%. Body weights were measured daily for four or five days and then twice weekly thereafter until the experiments were terminated on Day 62 of the study. […] Because mice are not tagged for MTD studies, only the mean group body weights recorded in the appended raw data are significant in those studies.

human serum albumin (HSA), sequence (P02768 25-609): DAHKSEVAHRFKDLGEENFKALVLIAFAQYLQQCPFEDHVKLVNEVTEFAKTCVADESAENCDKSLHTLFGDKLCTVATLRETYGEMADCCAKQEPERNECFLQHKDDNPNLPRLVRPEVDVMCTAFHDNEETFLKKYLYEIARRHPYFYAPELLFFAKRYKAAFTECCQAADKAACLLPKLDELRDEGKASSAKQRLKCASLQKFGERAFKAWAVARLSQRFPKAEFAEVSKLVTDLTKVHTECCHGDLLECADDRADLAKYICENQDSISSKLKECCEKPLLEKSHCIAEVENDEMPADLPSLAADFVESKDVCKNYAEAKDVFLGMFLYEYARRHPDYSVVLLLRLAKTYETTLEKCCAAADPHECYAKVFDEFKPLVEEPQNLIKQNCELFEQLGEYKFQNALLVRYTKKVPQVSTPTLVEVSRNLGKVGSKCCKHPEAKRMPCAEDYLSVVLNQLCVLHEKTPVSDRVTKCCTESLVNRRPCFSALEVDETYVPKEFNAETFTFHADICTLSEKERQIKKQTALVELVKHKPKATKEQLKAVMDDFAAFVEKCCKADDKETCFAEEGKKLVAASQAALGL

## CC[C@@]1(O)C(=O)OCc2c1cc1n(c2=O)Cc2cc3ccccc3nc2-1 [camptothecin, 20(S)-camptothecin]
[1]
  affinity of HSA for the carboxylate form relative to the α-hydroxy lactone form: 150 fold

## CC[C@@]1(O)C(=O)OCc2c1cc1n(c2=O)Cc2cc3c(CN(C)C)c(O)ccc3nc2-1 [HYCAMTIN®, topotecan]
[2]; Group 6: 10 mg/kg I.P., q4d×4
  62-day survivors (of 10 mice): one
[2]; Group 6: 10 mg/kg I.P., q4d×4, 10 mg/kg
  complete regression (CR) responses on Day 62: single and one

## CC[C@@](O)(C(=O)[O-])c1cc2n(c(=O)c1CO)Cc1cc3ccccc3nc1-2.[Na+] [Sodium camptothecin]
[3]
  clinical activity: antitumor activity
  clinical side effects: unpredictable side effects such as myelosuppression and hemorrhagic cystitis

## CCc1c2c(nc3ccc(OC(=O)N4CCC(N5CCCCC5)CC4)cc13)-c1cc3c(c(=O)n1C2)COC(=O)[C@]3(O)CC [CAMPTOSAR®, irinotecan]
[2]; Group 5: 100 mg/kg I.P., qwk×3
  62-day survivors (of 10 mice): one
[2]; Group 5: 100 mg/kg I.P., qwk×3, 100 mg/kg
  complete regression (CR) responses on Day 62: single and one

## CN(C)/N=N/c1[nH]cnc1C(N)=O [DTIC®, dacarbazine]
[4]
  toxic deaths (of 10 mice): one and One

— US6509027B2, “Injectable pharmaceutical composition comprising coated particles of camptothecin” (priority 2001, dated 2003)
